Experimental data: patent US9637453B2, “3-spirocyclic-6-hydroxamic acid tetralins as HDAC inhibitors” (Forma Therapeutics, Inc., priority 2015, dated 2017)

Legend:
[1] = molecular target: T1, Full length human recombinant HDAC6 (Homo sapiens, UniProt Q9UBN7); experiment: In vitro histone deacetylase assay, enzymatic HDAC6 (electrophoretic mobility shift assay); assay type: biochemical; conditions: 1 nM HDAC6; 2 μM peptide substrate FAM-RHKK(Ac)—NH2; 25° C.; 12 concentrations; read-out: HDAC6 Activity Range (IC50)
T1 construct: Full length human recombinant HDAC6 and HDAC11 proteins were expressed in baculoviral system
T1 sequence (Q9UBN7 1-1215): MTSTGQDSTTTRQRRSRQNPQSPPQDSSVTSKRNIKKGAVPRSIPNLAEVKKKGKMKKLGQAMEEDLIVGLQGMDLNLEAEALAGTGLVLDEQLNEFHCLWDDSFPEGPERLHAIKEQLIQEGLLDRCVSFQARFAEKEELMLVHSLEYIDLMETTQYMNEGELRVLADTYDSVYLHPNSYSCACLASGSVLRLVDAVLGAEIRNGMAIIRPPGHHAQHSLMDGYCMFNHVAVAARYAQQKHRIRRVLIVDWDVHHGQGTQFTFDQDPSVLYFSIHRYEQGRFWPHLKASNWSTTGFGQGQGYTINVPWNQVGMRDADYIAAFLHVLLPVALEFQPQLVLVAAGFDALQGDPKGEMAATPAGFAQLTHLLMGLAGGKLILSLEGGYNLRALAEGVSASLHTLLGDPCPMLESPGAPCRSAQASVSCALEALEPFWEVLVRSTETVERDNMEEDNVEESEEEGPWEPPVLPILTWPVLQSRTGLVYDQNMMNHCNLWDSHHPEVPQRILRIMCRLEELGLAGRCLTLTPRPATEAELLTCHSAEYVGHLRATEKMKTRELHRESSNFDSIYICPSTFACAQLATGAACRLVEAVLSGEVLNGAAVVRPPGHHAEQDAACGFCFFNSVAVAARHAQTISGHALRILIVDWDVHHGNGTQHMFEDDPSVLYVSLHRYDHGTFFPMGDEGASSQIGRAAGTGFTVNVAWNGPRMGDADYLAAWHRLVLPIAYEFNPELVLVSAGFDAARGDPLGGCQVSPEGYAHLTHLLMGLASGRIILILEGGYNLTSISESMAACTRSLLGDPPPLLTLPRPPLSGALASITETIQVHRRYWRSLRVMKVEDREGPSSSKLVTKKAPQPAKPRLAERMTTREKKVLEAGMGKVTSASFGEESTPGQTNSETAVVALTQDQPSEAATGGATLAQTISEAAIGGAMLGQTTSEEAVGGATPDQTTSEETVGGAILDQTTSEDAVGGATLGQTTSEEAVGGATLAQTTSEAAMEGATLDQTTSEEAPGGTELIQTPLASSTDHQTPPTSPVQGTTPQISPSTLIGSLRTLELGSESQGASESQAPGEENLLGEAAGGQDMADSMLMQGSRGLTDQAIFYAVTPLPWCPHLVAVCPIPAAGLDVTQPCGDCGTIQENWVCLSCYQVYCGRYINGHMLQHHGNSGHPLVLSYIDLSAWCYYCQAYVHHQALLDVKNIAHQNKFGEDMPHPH
Outline: (§1)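 Baculovirus-expressed full-length enzymes (HDAC6 1 nM, FAM-RHKK(Ac)-NH2; HDAC11 10 nM, FAM-RHKK(tri-fluor-Ac)-NH2), 2 μM substrate, HEPES pH 7.5, 25°C, 12-point 3× dilutions. Product/substrate separated by microfluidic mobility shift after SDS quench; IC50 from 4-parameter fit, reported as +/++/+++ bins.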

[2] = molecular target: T2, Full length human recombinant HDAC11 (Homo sapiens, UniProt Q96DB2); experiment: In vitro histone deacetylase assay, enzymatic HDAC11 (electrophoretic mobility shift assay); assay type: biochemical; conditions: 10 nM HDAC11; 2 μM peptide substrate FAM-RHKK(tri-fluor-Ac)—NH2; 25° C.; 12 concentrations; read-out: HDAC11 Activity Range (IC50)
T2 construct: Full length human recombinant HDAC6 and HDAC11 proteins were expressed in baculoviral system
T2 sequence (Q96DB2 1-347): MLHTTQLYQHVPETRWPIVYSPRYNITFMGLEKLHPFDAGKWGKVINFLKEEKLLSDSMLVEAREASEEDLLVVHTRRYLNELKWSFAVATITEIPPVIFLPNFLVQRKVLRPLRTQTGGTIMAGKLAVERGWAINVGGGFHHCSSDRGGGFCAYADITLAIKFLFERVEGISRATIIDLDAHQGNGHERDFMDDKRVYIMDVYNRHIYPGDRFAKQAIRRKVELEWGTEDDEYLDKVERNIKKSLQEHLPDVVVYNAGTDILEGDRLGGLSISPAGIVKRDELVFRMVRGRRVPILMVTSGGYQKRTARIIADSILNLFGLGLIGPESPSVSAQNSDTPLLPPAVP
Outline: as §1

| IC50 [1] [nM] | IC50 [2] [nM] | Structure (SMILES) |
| --- | --- | --- |
| ≤ 100 | > 500 | O=C(NO)c1ccc2c(c1)C[C@@]1(CC2)CCN(Cc2cnc(O)s2)C1=O [Compound I-50, (S)—N-hydroxy-1′-((2-hydroxythiazol-5-yl)methyl)-2′-oxo-3,4-dihydro-1H-spiro[naphthalene-2,3′-pyrrolidine]-7-carboxamide] |
| ≤ 100 | > 500 | O=C(NO)c1ccc2c(c1)C[C@@]1(CC2)CCN(Cc2ccccc2Cl)C1=O [Compound I-61, (S)-1′-(2-chlorobenzyl)-N-hydroxy-2′-oxo-3,4-dihydro-1H-spiro[naphthalene-2,3′-pyrrolidine]-7-carboxamide] |
| ≤ 100 | ≤ 100 | O=C(NO)c1ccc2c(c1)C[C@@]1(CC2)CCN(Cc2ccc(C(F)(F)F)cc2)C1=O [Compound I-126, (S)—N-hydroxy-2′-oxo-1′-(4-(trifluoromethyl)benzyl)-3,4-dihydro-1H-spiro[naphthalene-2,3′-pyrrolidine]-7-carboxamide] |
| ≤ 100 | > 500 | O=C(NO)c1ccc2c(c1)C[C@@]1(CC2)CC(=O)N(CC2CCC2)C1 [Compound I-134, (S)-1′-(cyclobutylmethyl)-N-hydroxy-5′-oxo-3,4-dihydro-1H-spiro[naphthalene-2,3′-pyrrolidine]-7-carboxamide] |
| ≤ 100 | > 500 | O=C(NO)c1ccc2c(c1)C[C@@]1(CC2)CCN(c2nc3ccccc3[nH]2)C1=O [Compound I-31, (S)-1′-(1H-benzo[d]imidazol-2-yl)-N-hydroxy-2′-oxo-3,4-dihydro-1H-spiro[naphthalene-2,3′-pyrrolidine]-7-carboxamide] |
| ≤ 100 | > 500 | O=C(NO)c1ccc2c(c1)C[C@@]1(CC2)CCN(CC(=O)N2CCOCC2)C1=O [Compound I-64, (S)—N-hydroxy-1′-(2-morpholino-2-oxoethyl)-2′-oxo-3,4-dihydro-1H-spiro[naphthalene-2,3′-pyrrolidine]-7-carboxamide] |
| ≤ 100 | > 500 | O=C(NO)c1ccc2c(c1)C[C@@]1(CC2)CCN(Cc2ccccn2)C1=O [Compound I-71, (S)—N-hydroxy-2′-oxo-1′-(pyridin-2-ylmethyl)-3,4-dihydro-1H-spiro[naphthalene-2,3′-pyrrolidine]-7-carboxamide] |
| ≤ 100 | > 500 | O=C(NO)c1ccc2c(c1)C[C@]1(CC2)CCN(CC(=O)N2CCOCC2)C1=O [Compound I-92, (R)—N-hydroxy-1′-(2-morpholino-2-oxoethyl)-2′-oxo-3,4-dihydro-1H-spiro[naphthalene-2,3′-pyrrolidine]-7-carboxamide] |
| ≤ 100 | > 500 | O=C(NO)c1ccc2c(c1)C[C@@]1(CC2)CCN(Cc2ccccc2C(F)(F)F)C1=O [Compound I-60, (S)—N-hydroxy-2′-oxo-1′-(2-(trifluoromethyl)benzyl)-3,4-dihydro-1H-spiro[naphthalene-2,3′-pyrrolidine]-7-carboxamide] |
| 100 to 500 | > 500 | CC(C)N1CCC2(CCc3ccc(C(=O)NO)cc3C2)C1 (stereo not shown) [Compound I-11, N-hydroxy-1′-isopropyl-3,4-dihydro-1H-spiro[naphthalene-2,3′-pyrrolidine]-7-carboxamide] |
| ≤ 100 | > 500 | O=C(NO)c1ccc2c(c1)C[C@]1(CC2)CC(=O)N(CC(F)(F)F)C1 [Compound I-149, (R)—N-hydroxy-5′-oxo-1′-(2,2,2-trifluoroethyl)-3,4-dihydro-1H-spiro[naphthalene-2,3′-pyrrolidine]-7-carboxamide] |
| ≤ 100 | > 500 | Cc1nn(C)cc1N1CC[C@]2(CCc3ccc(C(=O)NO)cc3C2)C1=O [Compound I-109, (R)-1′-(1,3-dimethyl-1H-pyrazol-4-yl)-N-hydroxy-2′-oxo-3,4-dihydro-1H-spiro[naphthalene-2,3′-pyrrolidine]-7-carboxamide] |
| 100 to 500 | > 500 | CN1CC[C@]2(CCc3ccc(C(=O)NO)cc3C2)C1 [Compound I-19, (R)—N-hydroxy-1′-methyl-3,4-dihydro-1H-spiro[naphthalene-2,3′-pyrrolidine]-7-carboxamide] |
| ≤ 100 | > 500 | O=C(NO)c1ccc2c(c1)C[C@]1(CC2)CCN(Cc2c(Cl)cccc2Cl)C1=O [Compound I-95, (R)-1′-(2,6-dichlorobenzyl)-N-hydroxy-2′-oxo-3,4-dihydro-1H-spiro[naphthalene-2,3′-pyrrolidine]-7-carboxamide] |
| ≤ 100 | ≤ 100 | COc1ccc(CN2CC[C@]3(CCc4ccc(C(=O)NO)cc4C3)C2=O)cc1 [Compound I-102, (R)—N-hydroxy-1′-(4-methoxybenzyl)-2′-oxo-3,4-dihydro-1H-spiro[naphthalene-2,3′-pyrrolidine]-7-carboxamide] |
| ≤ 100 | > 500 | O=C(NO)c1ccc2c(c1)C[C@@]1(CC2)CCN(Cc2ccccc2F)C1=O [Compound I-76, (S)-1′-(2-fluorobenzyl)-N-hydroxy-2′-oxo-3,4-dihydro-1H-spiro[naphthalene-2,3′-pyrrolidine]-7-carboxamide] |
| ≤ 100 | 100 to 500 | O=C(NO)c1ccc2c(c1)C[C@]1(CC2)CCN(Cc2ccc(C(F)(F)F)c(F)c2)C1=O [Compound I-125, (R)-1′-(3-fluoro-4-(trifluoromethyl)benzyl)-N-hydroxy-2′-oxo-3,4-dihydro-1H-spiro[naphthalene-2,3′-pyrrolidine]-7-carboxamide] |
| ≤ 100 | > 500 | O=C(NO)c1ccc2c(c1)C[C@@]1(CC2)CCN(c2ccc(Oc3ccccc3)cc2)C1=O [Compound I-116, (S)—N-hydroxy-2′-oxo-1′-(4-phenoxyphenyl)-3,4-dihydro-1H-spiro[naphthalene-2,3′-pyrrolidine]-7-carboxamide] |
| ≤ 100 | > 500 | CCCN1CC[C@@]2(CCc3ccc(C(=O)NO)cc3C2)C1=O [Compound I-52, (S)—N-hydroxy-2′-oxo-1′-propyl-3,4-dihydro-1H-spiro[naphthalene-2,3′-pyrrolidine]-7-carboxamide] |
| ≤ 100 | > 500 | COCCN1CC[C@@]2(CCc3ccc(C(=O)NO)cc3C2)C1=O [Compound I-56, (S)—N-hydroxy-1′-(2-methoxyethyl)-2′-oxo-3,4-dihydro-1H-spiro[naphthalene-2,3′-pyrrolidine]-7-carboxamide] |
| ≤ 100 | > 500 | O=C(NO)c1ccc2c(c1)C[C@@]1(CC2)CCN(Cc2ccccc2OC(F)F)C1=O [Compound I-78, (S)-1′-(2-(difluoromethoxy)benzyl)-N-hydroxy-2′-oxo-3,4-dihydro-1H-spiro[naphthalene-2,3′-pyrrolidine]-7-carboxamide] |
| ≤ 100 | > 500 | O=C(NO)c1ccc2c(c1)C[C@]1(CC2)CCN(c2cccc(OCCN3CCOCC3)c2)C1=O [Compound I-117, (R)—N-hydroxy-1′-(3-(2-morpholinoethoxy)phenyl)-2′-oxo-3,4-dihydro-1H-spiro[naphthalene-2,3′-pyrrolidine]-7-carboxamide] |
| ≤ 100 | > 500 | O=C(NO)c1ccc2c(c1)C[C@@]1(CC2)CCN(Cc2cnc(Cl)s2)C1=O [Compound I-49, (S)-1′-((2-chlorothiazol-5-yl)methyl)-N-hydroxy-2′-oxo-3,4-dihydro-1H-spiro[naphthalene-2,3′-pyrrolidine]-7-carboxamide] |
